Data published in ChEMBL document CHEMBL1201861, “Genomics of Drug Sensitity in Cancer screening data, Wellcome Trust Sanger Institute”.

System: LB2241-RCC;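 further: cell viability assay measuring how strongly the cultured human renal carcinoma line is prevented from growing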
Experiment: cells
Type: functional, cell-based, Homo sapiens
Details: Homo sapiens, LB2241-RCC
Description: SANGER: Inhibition of human LB2241-RCC cell growth in a cell viability assay.

Row | Compound | IC50
1 | COc1cc(-c2nn([C@H]3CC[C@H](N4CCN(C(C)=O)CC4)CC3)c3ncnc(N)c23)ccc1NC(=O)c1cc2ccccc2n1C | > 5.12 µM

System: HD-MY-Z;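 further: growth inhibition of HD-MY-Z cells, read out with a cell viability assay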
Experiment: cells
Type: functional, cell-based, Homo sapiens
Details: Homo sapiens, HD-MY-Z
Description: SANGER: Inhibition of human HD-MY-Z cell growth in a cell viability assay.

Row | Compound | IC50
2 | COc1cc(-c2nn([C@H]3CC[C@H](N4CCN(C(C)=O)CC4)CC3)c3ncnc(N)c23)ccc1NC(=O)c1cc2ccccc2n1C | 4.88 µM

System: RKO;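 further: growth inhibition of human RKO cells, read out with a cell viability assay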
Experiment: cells
Type: functional, cell-based, Homo sapiens
Details: Homo sapiens, RKO
Description: SANGER: Inhibition of human RKO cell growth in a cell viability assay.

Row | Compound | IC50
3 | COc1cc(-c2nn([C@H]3CC[C@H](N4CCN(C(C)=O)CC4)CC3)c3ncnc(N)c23)ccc1NC(=O)c1cc2ccccc2n1C | 3.46 µM

System: NCI-H209;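 further: growth inhibition of human NCI-H209 cells, measured by a cell viability assay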
Experiment: cells
Type: functional, cell-based, Homo sapiens
Details: Homo sapiens, NCI-H209
Description: SANGER: Inhibition of human NCI-H209 cell growth in a cell viability assay.

Row | Compound | IC50
4 | COc1cc(-c2nn([C@H]3CC[C@H](N4CCN(C(C)=O)CC4)CC3)c3ncnc(N)c23)ccc1NC(=O)c1cc2ccccc2n1C | > 5.12 µM

System: K562
Experiment: cells
Type: functional, cell-based, Homo sapiens
Details: Homo sapiens, K562
Description: SANGER: Inhibition of human K-562 cell growth in a cell viability assay.

Row | Compound | IC50
5 | COc1cc(-c2nn([C@H]3CC[C@H](N4CCN(C(C)=O)CC4)CC3)c3ncnc(N)c23)ccc1NC(=O)c1cc2ccccc2n1C | 0.392 µM

System: SF-539;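 further: Read-out is a cell viability assay, with IC50 reflecting inhibition of cell growth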
Experiment: cells
Type: functional, cell-based, Homo sapiens
Details: Homo sapiens, SF-539
Description: SANGER: Inhibition of human SF539 cell growth in a cell viability assay.

Row | Compound | IC50
6 | COc1cc(-c2nn([C@H]3CC[C@H](N4CCN(C(C)=O)CC4)CC3)c3ncnc(N)c23)ccc1NC(=O)c1cc2ccccc2n1C | > 5.12 µM

System: NCI-H1838;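 further: growth inhibition of NCI-H1838 cells, determined with a cell viability readout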
Experiment: cells
Type: functional, cell-based, Homo sapiens
Details: Homo sapiens, NCI-H1838
Description: SANGER: Inhibition of human NCI-H1838 cell growth in a cell viability assay.

Row | Compound | IC50
7 | COc1cc(-c2nn([C@H]3CC[C@H](N4CCN(C(C)=O)CC4)CC3)c3ncnc(N)c23)ccc1NC(=O)c1cc2ccccc2n1C | > 5.12 µM

System: NCI-H23;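 further: cell viability assay measuring growth inhibition of NCI-H23 cells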
Experiment: cells
Type: functional, cell-based, Homo sapiens
Details: Homo sapiens, NCI-H23
Description: SANGER: Inhibition of human NCI-H23 cell growth in a cell viability assay.

Row | Compound | IC50
8 | COc1cc(-c2nn([C@H]3CC[C@H](N4CCN(C(C)=O)CC4)CC3)c3ncnc(N)c23)ccc1NC(=O)c1cc2ccccc2n1C | > 5.12 µM

System: DJM-1;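 further: growth inhibition of human DJM-1 cells, read out by a cell viability assay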
Experiment: cells
Type: functional, cell-based, Homo sapiens
Details: Homo sapiens, DJM-1
Description: SANGER: Inhibition of human DJM-1 cell growth in a cell viability assay.

Row | Compound | IC50
9 | COc1cc(-c2nn([C@H]3CC[C@H](N4CCN(C(C)=O)CC4)CC3)c3ncnc(N)c23)ccc1NC(=O)c1cc2ccccc2n1C | > 5.12 µM

System: Mo
Experiment: cells
Type: functional, cell-based, Homo sapiens
Details: Homo sapiens, Mo
Description: SANGER: Inhibition of human Mo-T cell growth in a cell viability assay.

Row | Compound | IC50
10 | COc1cc(-c2nn([C@H]3CC[C@H](N4CCN(C(C)=O)CC4)CC3)c3ncnc(N)c23)ccc1NC(=O)c1cc2ccccc2n1C | > 5.12 µM

System: MMAC-SF;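 further: growth inhibition of human MMAC-SF cells, read out with a cell viability assay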
Experiment: cells
Type: functional, cell-based, Homo sapiens
Details: Homo sapiens, MMAC-SF
Description: SANGER: Inhibition of human MMAC-SF cell growth in a cell viability assay.

Row | Compound | IC50
11 | COc1cc(-c2nn([C@H]3CC[C@H](N4CCN(C(C)=O)CC4)CC3)c3ncnc(N)c23)ccc1NC(=O)c1cc2ccccc2n1C | > 5.12 µM

System: ES8;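 further: growth inhibition of human ES8 cells, read out with a cell viability assay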
Experiment: cells
Type: functional, cell-based, Homo sapiens
Details: Homo sapiens, ES8
Description: SANGER: Inhibition of human ES8 cell growth in a cell viability assay.

Row | Compound | IC50
12 | COc1cc(-c2nn([C@H]3CC[C@H](N4CCN(C(C)=O)CC4)CC3)c3ncnc(N)c23)ccc1NC(=O)c1cc2ccccc2n1C | > 5.12 µM

System: MLMA;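 further: growth inhibition of MLMA cells (human), determined through a cell viability readout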
Experiment: cells
Type: functional, cell-based, Homo sapiens
Details: Homo sapiens, MLMA
Description: SANGER: Inhibition of human MLMA cell growth in a cell viability assay.

Row | Compound | IC50
13 | COc1cc(-c2nn([C@H]3CC[C@H](N4CCN(C(C)=O)CC4)CC3)c3ncnc(N)c23)ccc1NC(=O)c1cc2ccccc2n1C | 0.209 µM

System: NCI-H1770;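 further: growth inhibition of NCI-H1770 cells determined with a viability readout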
Experiment: cells
Type: functional, cell-based, Homo sapiens
Details: Homo sapiens, NCI-H1770
Description: SANGER: Inhibition of human NCI-H1770 cell growth in a cell viability assay.

Row | Compound | IC50
14 | COc1cc(-c2nn([C@H]3CC[C@H](N4CCN(C(C)=O)CC4)CC3)c3ncnc(N)c23)ccc1NC(=O)c1cc2ccccc2n1C | > 5.12 µM

System: EKVX;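 further: growth inhibition of human EKVX cells, read out with a cell viability assay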
Experiment: cells
Type: functional, cell-based, Homo sapiens
Details: Homo sapiens, EKVX
Description: SANGER: Inhibition of human EKVX cell growth in a cell viability assay.

Row | Compound | IC50
15 | COc1cc(-c2nn([C@H]3CC[C@H](N4CCN(C(C)=O)CC4)CC3)c3ncnc(N)c23)ccc1NC(=O)c1cc2ccccc2n1C | > 5.12 µM

System: A4-Fuk;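 further: growth inhibition of A4-Fuk cells, read out by a cell viability assay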
Experiment: cells
Type: functional, cell-based, Homo sapiens
Details: Homo sapiens, A4-Fuk
Description: SANGER: Inhibition of human A4-Fuk cell growth in a cell viability assay.

Row | Compound | IC50
16 | COc1cc(-c2nn([C@H]3CC[C@H](N4CCN(C(C)=O)CC4)CC3)c3ncnc(N)c23)ccc1NC(=O)c1cc2ccccc2n1C | > 5.12 µM

System: NTERA-2-cl-D1;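 further: inhibition of cell growth, measured with a cell viability assay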
Experiment: cells
Type: functional, cell-based, Homo sapiens
Details: Homo sapiens, NTERA-2-cl-D1
Description: SANGER: Inhibition of human NTERA-S-cl-D1 cell growth in a cell viability assay.

Row | Compound | IC50
17 | COc1cc(-c2nn([C@H]3CC[C@H](N4CCN(C(C)=O)CC4)CC3)c3ncnc(N)c23)ccc1NC(=O)c1cc2ccccc2n1C | > 5.12 µM

System: NCI-H1155;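 further: cell growth inhibition measured by a viability assay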
Experiment: cells
Type: functional, cell-based, Homo sapiens
Details: Homo sapiens, NCI-H1155
Description: SANGER: Inhibition of human NCI-H1155 cell growth in a cell viability assay.

Row | Compound | IC50
18 | COc1cc(-c2nn([C@H]3CC[C@H](N4CCN(C(C)=O)CC4)CC3)c3ncnc(N)c23)ccc1NC(=O)c1cc2ccccc2n1C | > 5.12 µM

System: COLO-320-HSR;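 further: growth inhibition of COLO-320-HSR cells, determined with a cell viability assay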
Experiment: cells
Type: functional, cell-based, Homo sapiens
Details: Homo sapiens, COLO-320-HSR
Description: SANGER: Inhibition of human COLO-320-HSR cell growth in a cell viability assay.

Row | Compound | IC50
19 | COc1cc(-c2nn([C@H]3CC[C@H](N4CCN(C(C)=O)CC4)CC3)c3ncnc(N)c23)ccc1NC(=O)c1cc2ccccc2n1C | > 5.12 µM

System: MOLT-4;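 further: growth inhibition of MOLT-4 cells, determined with a cell viability readout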
Experiment: cells
Type: functional, cell-based, Homo sapiens
Details: Homo sapiens, MOLT-4
Description: SANGER: Inhibition of human MOLT-4 cell growth in a cell viability assay.

Row | Compound | IC50
20 | COc1cc(-c2nn([C@H]3CC[C@H](N4CCN(C(C)=O)CC4)CC3)c3ncnc(N)c23)ccc1NC(=O)c1cc2ccccc2n1C | > 5.12 µM

System: IST-MES1;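 further: growth inhibition of IST-MES1 cells, measured with a cell viability assay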
Experiment: cells
Type: functional, cell-based, Homo sapiens
Details: Homo sapiens, IST-MES1
Description: SANGER: Inhibition of human IST-MES1 cell growth in a cell viability assay.

Row | Compound | IC50
21 | COc1cc(-c2nn([C@H]3CC[C@H](N4CCN(C(C)=O)CC4)CC3)c3ncnc(N)c23)ccc1NC(=O)c1cc2ccccc2n1C | 1.4 µM

System: ES5;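 further: growth inhibition of human ES5 cells, read out by a cell viability assay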
Experiment: cells
Type: functional, cell-based, Homo sapiens
Details: Homo sapiens, ES5
Description: SANGER: Inhibition of human ES5 cell growth in a cell viability assay.

Row | Compound | IC50
22 | COc1cc(-c2nn([C@H]3CC[C@H](N4CCN(C(C)=O)CC4)CC3)c3ncnc(N)c23)ccc1NC(=O)c1cc2ccccc2n1C | > 5.12 µM

System: OS-RC-2;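 further: growth inhibition of human OS-RC-2 cells, measured by a cell viability assay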
Experiment: cells
Type: functional, cell-based, Homo sapiens
Details: Homo sapiens, OS-RC-2
Description: SANGER: Inhibition of human OS-RC-2 cell growth in a cell viability assay.

Row | Compound | IC50
23 | COc1cc(-c2nn([C@H]3CC[C@H](N4CCN(C(C)=O)CC4)CC3)c3ncnc(N)c23)ccc1NC(=O)c1cc2ccccc2n1C | 0.755 µM

System: HCC1187;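 further: growth inhibition of HCC1187 cells, read out with a cell viability assay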
Experiment: cells
Type: functional, cell-based, Homo sapiens
Details: Homo sapiens, HCC1187
Description: SANGER: Inhibition of human HCC1187 cell growth in a cell viability assay.

Row | Compound | IC50
24 | COc1cc(-c2nn([C@H]3CC[C@H](N4CCN(C(C)=O)CC4)CC3)c3ncnc(N)c23)ccc1NC(=O)c1cc2ccccc2n1C | > 5.12 µM
